Literature values, collected in US20050163829A1, “Device and patch for controlled release of vanillin” (priority 2001, published 2005).

What was measured:
[1] = test system: glutamate receptors (NMDA)
[2] = test system: nicotinic acetylcholine receptor (nACh)

Row | SMILES | effect on the glutamate receptor KA (glutamate receptors (KA)) | effect on the glutamate receptor NMDA [1] | effect on the GABA receptor (GABA receptor) | effect on the nicotinic acetylcholine receptor (nACh) [2]
1 | COc1cc(C=O)ccc1O [Vanillin, 3 methoxy-4 hydroxybenzaldehyde] | inhibitory effect | inhibitory effect | inhibited | inhibited
2 | CC(C)=CCC/C(C)=C/CO [geraniol] |  |  | stimulate | 
3 | CCCCOC(C)=O [butyl acetate] |  |  | stimulate | 
